From US20150157739A1, “Imidazo[2,1]thiazol-3-one derivatives” (Hoffmann-La Roche Inc., priority 2012, published 2015)

Experiments:
[1] = biological target: T1, aggregated recombinant human-microtubule associated protein Tau (Homo sapiens, UniProt P10636); assay: Thiazin-red R displacement fluorescence assay on aggregated Tau; format: binding; conditions: displacement of Thiazin-red R from aggregated Tau; compound 0.3 nM to 10000 nM; 30 min room temperature; Ex 531 nm/Em 595 nm
T1 construct: Recombinant human-microtubule associated protein Tau purified from E. coli is aggregated at a concentration of 5 μM with Arachidonic Acid (100 μM) in Tris 10 mM pH8, 24 h at 37° C

[2] = biological target: T2, aggregated synthetic Aβ40 (Homo sapiens, UniProt P05067); assay: Thiazin-red R displacement fluorescence assay on aggregated A-beta; format: binding; conditions: displacement of Thiazin-red R from aggregated Aβ40; compound 0.3 nM to 10000 nM; 30 min room temperature; Ex 531 nm/Em 595 nm
T2 construct: Synthetic Aβ40 is aggregated at a concentration of 50 μM
T2 sequence (P05067 672-711 limits assumed): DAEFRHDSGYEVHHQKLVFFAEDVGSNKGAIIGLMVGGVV

T1 sequence (P10636 whole entry): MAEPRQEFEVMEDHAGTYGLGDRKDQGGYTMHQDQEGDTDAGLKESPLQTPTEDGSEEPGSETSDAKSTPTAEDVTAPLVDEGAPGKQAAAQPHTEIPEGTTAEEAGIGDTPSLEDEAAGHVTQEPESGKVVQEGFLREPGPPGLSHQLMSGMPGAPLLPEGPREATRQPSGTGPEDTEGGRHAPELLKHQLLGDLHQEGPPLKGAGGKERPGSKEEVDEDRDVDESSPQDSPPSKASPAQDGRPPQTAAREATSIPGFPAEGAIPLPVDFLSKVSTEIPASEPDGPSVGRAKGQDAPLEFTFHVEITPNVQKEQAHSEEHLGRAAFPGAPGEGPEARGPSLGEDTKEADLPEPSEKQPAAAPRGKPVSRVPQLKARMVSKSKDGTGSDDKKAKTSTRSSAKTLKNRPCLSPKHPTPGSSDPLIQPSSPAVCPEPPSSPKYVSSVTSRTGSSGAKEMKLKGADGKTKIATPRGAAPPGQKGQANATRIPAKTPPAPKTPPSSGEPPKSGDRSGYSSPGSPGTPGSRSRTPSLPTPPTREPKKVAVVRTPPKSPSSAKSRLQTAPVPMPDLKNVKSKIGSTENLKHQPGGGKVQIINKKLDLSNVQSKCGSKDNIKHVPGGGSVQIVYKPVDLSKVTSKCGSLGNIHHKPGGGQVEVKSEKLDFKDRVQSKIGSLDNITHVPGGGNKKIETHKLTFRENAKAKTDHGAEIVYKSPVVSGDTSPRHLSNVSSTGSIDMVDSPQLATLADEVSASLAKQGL

Q: `COc1cc(/C=c2\sc3nc(-c4ccc(C(=O)NCCF)cc4)cn3c2=O)cc(Cl)c1O` [Example 116, 4-{2-[1-(3-Chloro-4-hydroxy-5-methoxy-phenyl)-meth-(Z)-ylidene]-3-oxo-2,3-dihydro-imidazo[2,1-b]thiazol-6-yl}-N-(2-fluoro-ethyl)-benzamide] was tested. Which IC50 [1] did it give?
A: 3 nM

Q: What about the IC50 [2] of the same compound?
A: 820 nM

Q: What does the source list for `COc1cc(/C=c2\sc3nc(-c4ccc(F)c(C(F)(F)F)c4)cn3c2=O)cc(F)c1O` [Example 42, 2-[1-(3-fluoro-4-hydroxy-5-methoxy-phenyl)-meth-(Z)-ylidene]-6-(4-fluoro-3-(trifluoromethyl)-phenyl)-imidazo[2,1-b]thiazol-3-one]?
A: IC50 [1]: 24 nM; IC50 [2]: 198 nM

Q: `COc1cc(/C=c2\sc3nc(-c4ccc(Cl)cc4)cn3c2=O)cc(F)c1O` [Example 4, 6-(4-Chloro-phenyl)-2-[1-(3-fluoro-4-hydroxy-5-methoxy-phenyl)-meth-(Z)-ylidene]-imidazo[2,1-b]thiazol-3-one] was tested. Which IC50 [1] did it give?
A: 11 nM

Q: And the IC50 [2]?
A: 393 nM

Q: How did the IC50 [1] turn out when `COc1cc(/C=c2\sc3nc(-c4cc(F)cc(F)c4)cn3c2=O)cc(Cl)c1O` [Example 49, 2-[1-(3-Chloro-4-hydroxy-5-methoxy-phenyl)-meth-(Z)-ylidene]-6-(3,5-difluoro-phenyl)-imidazo[2,1-b]thiazol-3-one] was run?
A: 16 nM

Q: And the IC50 [2]?
A: 1370 nM

Q: `COc1cc(/C=c2\sc3nc(-c4ccccc4)cn3c2=O)cc(Cl)c1O` [Example 60, 2-[1-(3-Chloro-4-hydroxy-5-methoxy-phenyl)-meth-(Z)-ylidene]-6-phenyl-imidazo[2,1-b]thiazol-3-one] was tested. Which IC50 [1] did it give?
A: 25 nM

Q: What about the IC50 [2] of the same compound?
A: 851 nM

Q: With `COc1cc(/C=c2\sc3nc(-c4cccc(OCCF)c4)cn3c2=O)cc(Cl)c1O` [Example 74, 2-[1-(3-Chloro-4-hydroxy-5-methoxy-phenyl)-meth-(Z)-ylidene]-6-(3-(2-fluoroethoxyl)phenyl)-imidazo[2,1-b]thiazol-3-one] as the compound, how does the IC50 [1] read?
A: 5 nM

Q: And the IC50 [2]?
A: 55 nM

Q: What does the source list for `COc1cc(/C=c2\sc3nc(-c4cccc(C)c4)cn3c2=O)cc(OC)c1O` [Example 20, 2-[1-(4-Hydroxy-3,5-dimethoxy-phenyl)-meth-(Z)-ylidene]-6-m-tolyl-imidazo[2,1-b]thiazol-3-one]?
A: IC50 [1]: 3 nM; IC50 [2]: 20 nM

Q: How did the IC50 [1] turn out when `COc1cc(/C=c2\sc3nc(-c4ccc(C(=O)NCCNC(=O)OC(C)(C)C)cc4)cn3c2=O)cc(Cl)c1O` [Example 150, [2-(4-{2-[1-(3-Chloro-4-hydroxy-5-methoxy-phenyl)-meth-(Z)-ylidene]-3-oxo-2,3-dihydro-imidazo[2,1-b]thiazol-6-yl}-benzoylamino)-ethyl]-carbamic acid tert-butyl ester] was run?
A: 1.8 nM

Q: What about the IC50 [2] of the same compound?
A: 118 nM

Q: What does the source list for `C=CCOc1cccc(-c2cn3c(=O)/c(=C/c4cc(Cl)c(O)c(OC)c4)sc3n2)c1` [Example 80, 2-[1-(3-Chloro-4-hydroxy-5-methoxy-phenyl)-meth-(Z)-ylidene]-6-(3-(allyloxy)phenyl)-imidazo[2,1-b]thiazol-3-one]?
A: IC50 [1]: 6 nM; IC50 [2]: 20 nM

Q: Which IC50 [1] does the source give for `COc1cc(/C=c2\sc3nc(-c4cc(C)nc(C)c4)cn3c2=O)ccc1O` [Example 13, 2-[1-(4-Hydroxy-3-methoxy-phenyl)-meth-(Z)-ylidene]-6-(2,6-dimethyl-pyridin-4-yl)-imidazo[2,1-b]thiazol-3-one] here?
A: 91 nM

Q: And the IC50 [2]?
A: > 10000 nM

Q: Which results are given for `CNC(=O)c1cccc(-c2cn3c(=O)/c(=C/c4cc(Cl)c(O)c(OC)c4)sc3n2)c1` [Example 108, 3-{2-[1-(3-Chloro-4-hydroxy-5-methoxy-phenyl)-meth-(Z)-ylidene]-3-oxo-2,3-dihydro-imidazo[2,1-b]thiazol-6-yl}-N-methyl-benzamide]?
A: IC50 [1]: 4 nM; IC50 [2]: 395 nM

Q: What does the source list for `COc1cc(/C=c2\sc3nc(-c4cccc(C#N)c4)cn3c2=O)cc(Br)c1O` [Example 45, 3-{2-[1-(3-Bromo-4-hydroxy-5-methoxy-phenyl)-meth-(Z)-ylidene]-3-oxo-2,3-dihydro-imidazo[2,1-b]thiazol-6-yl}-benzonitrile]?
A: IC50 [1]: 25 nM; IC50 [2]: > 10000 nM

Q: How did the IC50 [1] turn out when `COc1cc(/C=c2\sc3nc(-c4cccc(C(=O)NCCF)c4)cn3c2=O)cc(Cl)c1O` [Example 106, 3-{2-[1-(3-Chloro-4-hydroxy-5-methoxy-phenyl)-meth-(Z)-ylidene]-3-oxo-2,3-dihydro-imidazo[2,1-b]thiazol-6-yl}-N-(2-fluoro-ethyl)-benzamide] was run?
A: 8 nM

Q: What about the IC50 [2] of the same compound?
A: 1080 nM

Q: What does the source list for `CCCOc1cc(/C=c2\sc3nc(-c4cccs4)cn3c2=O)cc(Cl)c1O` [Example 132, 2-[1-(3-Chloro-4-hydroxy-5-propoxy-phenyl)-meth-(Z)-ylidene]-6-thiophen-2-yl-imidazo[2,1-b]thiazol-3-one]?
A: IC50 [1]: 41 nM; IC50 [2]: 718 nM

Q: `COc1ccc(-c2nc3s/c(=C\c4cc(Cl)c(O)c(OC)c4)c(=O)n3c2C)cc1` [Example 14, 2-[1-(3-Chloro-4-hydroxy-5-methoxy-phenyl)-meth-(Z)-ylidene]-6-(4-methoxy-phenyl)-5-methyl-imidazo[2,1-b]thiazol-3-one] was tested. Which IC50 [1] did it give?
A: 37 nM

Q: And the IC50 [2]?
A: 466 nM

Q: For `COc1cc(/C=c2\sc3nc(-c4cccc(OC(F)(F)F)c4)cn3c2=O)cc(OC)c1O` [Example 18, 2-[1-(4-Hydroxy-3,5-dimethoxy-phenyl)-meth-(Z)-ylidene]-6-(3-trifluoromethoxy-phenyl)-imidazo[2,1-b]thiazol-3-one], which IC50 [1] is on record?
A: 4 nM

Q: And the IC50 [2]?
A: 114 nM

Q: Which results are given for `CCCOc1cc(/C=c2\sc3nc(-c4ccccn4)cn3c2=O)cc(Cl)c1O` [Example 136, 2-[1-(3-Chloro-4-hydroxy-5-propoxy-phenyl)-meth-(Z)-ylidene]-6-pyridin-2-yl-imidazo[2,1-b]thiazol-3-one]?
A: IC50 [1]: 30 nM; IC50 [2]: 293 nM

Q: Which results are given for `COc1cc(/C=c2\sc3nc(-c4ccnc(C)c4)cn3c2=O)cc(OC)c1O` [Example 16, 2-[1-(4-Hydroxy-3,5-dimethoxy-phenyl)-meth-(Z)-ylidene]-6-(2-methyl-pyridin-4-yl)-imidazo[2,1-b]thiazol-3-one]?
A: IC50 [1]: 8 nM; IC50 [2]: 32 nM

Q: Which results are given for `COc1cc(/C=c2\sc3nc(-c4cccc(C(N)=O)c4)cn3c2=O)cc(Cl)c1O` [Example 86, 3-{2-[1-(3-Chloro-4-hydroxy-5-methoxy-phenyl)-meth-(Z)-ylidene]-3-oxo-2,3-dihydro-imidazo[2,1-b]thiazol-6-yl}-benzamide]?
A: IC50 [1]: 1 nM; IC50 [2]: 1240 nM

Q: How did the IC50 [1] turn out when `COc1cc(/C=c2\sc3nc(-c4ccc(Cl)cc4)cn3c2=O)cc(OC(C)C)c1O` [Example 30, 6-(4-Chloro-phenyl)-2-[1-(4-hydroxy-3-isopropoxy-5-methoxy-phenyl)-meth-(Z)-ylidene]-imidazo[2,1-b]thiazol-3-one] was run?
A: 6 nM

Q: What about the IC50 [2] of the same compound?
A: 16 nM

Q: Which results are given for `COc1cc(/C=c2\sc3nc(-c4cc(C)nc(C)c4)cn3c2=O)cc(Cl)c1O` [Example 63, 2-[1-(3-Chloro-4-hydroxy-5-methoxy-phenyl)-meth-(Z)-ylidene]-6-(2,6-dimethyl-pyridin-4-yl)-imidazo[2,1-b]thiazol-3-one]?
A: IC50 [1]: 13 nM; IC50 [2]: 418 nM

Q: Which IC50 [1] does the source give for `COc1cc(/C=c2\sc3nc(-c4ccnc(C)c4)cn3c2=O)cc(Br)c1O` [Example 77, 2-[1-(3-Bromo-4-hydroxy-5-methoxy-phenyl)-meth-(Z)-ylidene]-6-(2-methylpyridin-4-yl)-imidazo[2,1-b]thiazol-3-one] here?
A: 1 nM

Q: And the IC50 [2]?
A: 76 nM

Q: For `CCCOc1cc(/C=c2\sc3nc(-c4ccncc4)cn3c2=O)cc(F)c1O` [Example 122, 2-[1-(3-Fluoro-4-hydroxy-5-propoxy-phenyl)-meth-(Z)-ylidene]-6-pyridin-4-yl-imidazo[2,1-b]thiazol-3-one], which IC50 [1] is on record?
A: 23.5 nM

Q: What about the IC50 [2] of the same compound?
A: 2670 nM

Q: Which IC50 [1] does the source give for `COc1cc(/C=c2\sc3nc(-c4cccc(C(=O)O)c4)cn3c2=O)cc(Cl)c1O` [Example 104, 3-{2-[1-(3-Chloro-4-hydroxy-5-methoxy-phenyl)-meth-(Z)-ylidene]-3-oxo-2,3-dihydro-imidazo[2,1-b]thiazol-6-yl}-benzoic acid] here?
A: 19 nM

Q: And the IC50 [2]?
A: > 10000 nM

Q: What does the source list for `COc1cc(/C=c2\sc3nc(-c4cccc(F)c4)cn3c2=O)cc(OC)c1O` [Example 59, 2-[1-(4-Hydroxy-3,5-dimethoxy-phenyl)-meth-(Z)-ylidene]-6-(3-fluoro-phenyl)-imidazo[2,1-b]thiazol-3-one]?
A: IC50 [1]: 2 nM; IC50 [2]: 50 nM

Q: For `COc1cc(/C=c2\sc3nc(-c4ccc(C(=O)N(C)CCCF)cc4)cn3c2=O)cc(Cl)c1O` [Example 137], which IC50 [1] is on record?
A: 7 nM

Q: And the IC50 [2]?
A: 332 nM

Q: With `COc1cc(/C=c2\sc3nc(-c4ccncc4)cn3c2=O)cc(F)c1O` [Example 69, 2-[1-(3-Fluoro-4-hydroxy-5-methoxy-phenyl)-meth-(Z)-ylidene]-6-(pyridin-4-yl)-imidazo[2,1-b]thiazol-3-one] as the compound, how does the IC50 [1] read?
A: 20 nM

Q: What about the IC50 [2] of the same compound?
A: 620 nM

Q: `COc1cc(/C=c2\sc3nc(-c4ccc(C(=O)N5CCC(F)CC5)cc4)cn3c2=O)cc(Cl)c1O` [Example 127, 2-[1-(3-Chloro-4-hydroxy-5-methoxy-phenyl)-meth-(Z)-ylidene]-6-[4-(4-fluoro-piperidine-1-carbonyl)-phenyl]-imidazo[2,1-b]thiazol-3-one] was tested. Which IC50 [1] did it give?
A: 6 nM

Q: What about the IC50 [2] of the same compound?
A: 118 nM

Q: Which results are given for `COc1cc(/C=c2\sc3nc(-c4ccccc4C)cn3c2=O)cc(F)c1O` [Example 9, 2-[1-(3-Fluoro-4-hydroxy-5-methoxy-phenyl)-meth-(Z)-ylidene]-6-o-tolyl-imidazo[2,1-b]thiazol-3-one]?
A: IC50 [1]: 105 nM; IC50 [2]: 706 nM
